According to patent US20130225523A1, “GLYCODENDRIMERS OF POLYPROPYLETHERIMINE” (priority 2010, published 2013):

System: pro-inflammatory cytokines such as IL-6, IL-1 beta, TNF-alpha and MIP-1 beta
Experiment: Effect of unconjugated components on pro-inflammatory cytokines
Format: cell-based
Conditions: even at high doses

N[C@H]1C(O)O[C@H](CO)[C@@H](O)[C@@H]1O (stereo partly shown) [glucosamine]
effect on pro-inflammatory cytokines such as IL-6, IL-1 beta, TNF-alpha and MIP-1 beta: no effect
